Series [1] deals with kanR* gene on target plasmid. Description: kanR* reversion assay (frequency of kanamycin-resistant colonies). The format is cell-based, E. coli. Here is the method:
Three DNA elements were added to E. coli to create a targeted error-prone artificial replisome: a constitutively-expressed, chromosomal CisA gene, a target vector plasmid and a helper vector plasmid (FIG. 1A-1B and FIG. 5). The target vector contained the gene(s) of interest targeted for mutagenesis between the CisA initiation and termination sequences. To quantify the increase in mutagenesis, mutagenesis was targeted to the gene for a kanamycin resistance protein (aminoglycoside phosphotransferase (3)-IIIa). This gene, named kanR*, carried a single nucleotide substitution (A785C), which encodes an E262A amino acid substitution that inactivates the kanamycin resistance (Thompson et al., J Biol Chem, 274 (43): 30697-30706, (1999)). Mutations that reverse this substitution will restore gene function, allowing the cells to grow in the presence of kanamycin. Resistant colony-forming unit (CFU) per pl of full density culture (frequency of resistant CFU per cell plated) is used as a readout for mutagenic capacity. The helper plasmid contains a gene encoding the fusion of the error-prone T5 DNA polymerase to the Rep helicase under the control of a T7 promoter. (The host cell also contains a chromosomal gene to express the T7 RNA polymerase and a deletion of the chromosomal Rep gene to eliminate potential competition with the fusion protein.)
The DNA polymerase activity of the T5 DNA polymerase-Rep helicase fusion protein was measured by its capacity to mutate the target, kanR* and restore kanamycin resistance. The bacteria, in this Example, contained all three elements of the targeted error-prone artificial replisome: a constitutively-expressed, chromosomal CisA gene, the target plasmid carrying the kanR* gene flanked by the initiation and termination sequences, and the helper plasmid expressing the T5 DNA polymerase-Rep helicase fusion protein. These cells were picked from a transformation plate, propagated in liquid for ten generations to accumulate mutations and then plated onto kanamycin-containing media for selection.
KanR* reversion assay was used. Three transformations were carried out, all into the host cell for TADR, as shown in FIG. 2C: the helper plasmid with the wildtype T5 polymerase co-transformed with the target plasmid; the helper plasmid with the error-prone T5 polymerase mutant, with the target plasmid without the recognition and termination sequences; the helper plasmid with the error-prone T5 polymerase mutant, with the target plasmid. Transformant colonies were selected on LB agar plates supplemented with 15 ng/μl chloramphenicol and 50 ng/μl ampicillin and inoculated to a liquid LB cultures with chloramphenicol and ampicillin. After overnight growth, 50 μl culture from each sample was plated on LB plates supplemented with 30 ng/μl kanamycin. After 16 h incubation at 37° C., colonies were counted.

The subject of series [2] is bacteria lacking endogenous Rep helicase. Nature of the series: assay of sensitivity to nalidixic acid (Rep helicase activity). The format is cell-based, E. coli. Particulars: 2.5 ng/μl nalidixic acid; rep- cells with helper plasmid. How it is done:
The Rep helicase activity of the T5 DNA polymerase-Rep helicase fusion was measured by its ability to alleviate growth retardation caused by nalidixic acid in a strain lacking endogenous Rep helicase (Henderson et al., PLOS ONE, 10 (5): e0128092, (2015)). Bacteria normally tolerate low levels of nalidixic acid, but bacteria lacking endogenous Rep helicase grow more slowly because nalidixic acid inhibits DNA gyrase and topoisomerase.
Assay of sensitivity to nalidixic acid was used(Henderson et al., PLOS ONE, 10 (5): e0128092, (2015)). Three cell lines were prepared, namely TADR cells modified to have intact chromosomal rep, TADR cells (rep-) and TADR cells (rep-) transformed with helper plasmid (expressing the fusion protein). A Rep gene knockout mutation was P1-transduced from Keio-collection(Baba et al., Mol Syst Biol, 2 2006.0008-2006.0008, (2006)) into the host cell for using standard technique of molecular cloning(Green, (2012)). The helper plasmid was transformed into this rep-cell and selected on LB agar plate supplemented with 50 ng/μl ampicillin. From this cell line together with other two—the host cell for, its rep-derivative, single colonies were inoculated into liquid LB culture (ampicillin was added to cultures of the first cell line). […]

Series [3] relates to primed DNA substrate. Description: association of DNA polymerase with primed DNA substrate. The format is binding. Particulars: local effective concentration of polymerase 0.2-0.6 mM; kon of T7 assumed. Here is the method: The artificial replisome must simultaneously unwind DNA and copy the exposed strand to prevent degradation of the exposed ssDNA, which causes genetic instability. In addition, DNA synthesis must avoid premature termination within the target region. Connecting Rep helicase and T5 DNA polymerase with a flexible linker increases the local effective concentrations to an estimated 0.2-0.6 mM(Li et al., Protein Sci, 27 (9): 1600-1610, (2018)) in order to achieve both of these goals. The CisA protein recruits Rep helicase to the target region and stabilizes it. Rep helicase unwinds DNA at about 144 base-pairs/s (Arslan et al., Science (New York, N.Y.), 348 (6232): 344-347, (2015)), so DNA synthesis must initiate at least that fast to proceed simultaneously. The bimolecular association rate constant of T7 DNA polymerase (kon) for primed DNA substrate is 3.6×10^7M^−1s^−1 (Luo et al., Proceedings of the National Academy of Sciences, 104 (31): 12610-12615, (2007)) and it was assumed T5 DNA polymerase associates at a similar rate. If the local effective concentration of polymerase is 0.2-0.6 mM, then the rate of association is 7200-22,000 s^−1, which far exceeds the rate of unwinding. […]

The conditions of series [4]: six-His tag linked to C-terminus; cited from earlier work.
For series [5], the system named is primed DNA substrate. Particulars: cited from earlier work.

Where a chain is given by its changes, count along the chain named. Numbers in names are those of the source.

With “fusion containing RepΔC33: fusion protein in which the 33 C-terminal amino acids of Rep helicase were deleted; SEQ ID NO:10”, in series [1] (LB), the “frequency of kanamycin-resistant colonies, fold over control whose target plasmid was without initiation sequence” value stood at 67 fold and the “increase in selectivity from RepΔC33 versus wildtype Rep” value is on record as 16 fold.
Turning to “T5 DNA polymerase-Rep helicase fusion protein: T5 DNA polymerase (D164A, E166A, A593R) linked by 81-amino acid linker to Rep helicase; SEQ ID NO:22”, the “frequency of kanamycin-resistant colonies, fold over control whose target plasmid was without initiation sequence” value in series [1] (LB) is on record as 4.2 fold. The “frequency of kanamycin-resistant colonies, fold increase over control with wildtype T5 DNA polymerase” value in series [1] (LB, wildtype Rep, T5 D164A, E166A, A593R) stood at 128 fold. Moreover, in series [1] (stem-loop designed into 5′ UTR of the fusion gene), the “increase in mutation rate from engineered 5′ UTR” value is “up to 150 fold”. For the same molecule, the “effect on nalidixic acid inhibition of growth” value in series [2] was “partially alleviated”.

B1: I308V: self-evolved variant of error-prone T5 DNA polymerase with single I308V substitution; SEQ ID NO:3 (protein)
chain: MKIAVVDKALNNTRYDKHFQLYGEEVDVFHMCNEKLSGRLLKKHITIGTPENPFDPNDYDFVILVGAEPFLYFAGKKGIGDYTGKRVEYNGYANWIASISPAQLHFKPEMKPVFDATVENIHDIINGREKIAKAGDYRPITDPDEAEEYIKMVYNMVIGPVAFASATSALYCRDGYLLGVSISHQEYQGVYIDSDCLTEVAVYYLQKILDSENHTIVFHNLKFDMHFYKYHLGLTFDKAHKERRLHDTMLQHYVLDERRGTHGLKSLAMKYTDMGDYDFELDKFKDDYCKAHKIKKEDFTYDLIPFDVMWPYAAKDTDATIRLHNFFLPKIEKNEKLCSLYYDVLMPGCVFLQRVEDRGVPISIDRLKEAQYQLTHNLNKAREKLYTYPEVKQLEQDQNEAFNPNSVKQLRVLLFDYVGLTPTGKLTDTGADSTDAEALNELATQHPIAKTLLEIRKLTKLISTYVEKILLSIDADGCIRTGFHEHMTTSGRLSSSGKLNLQQLPRDESIIKGCVVAPPGYRVIAWDLTTAEVYYAAVLSGDRNMQQVFINMRNEPDKYPDFHSNIAHMVFKLQCEPRDVKKLFPALRQAAKRITFGILYGSGPAKVAHSVNEALLEQAAKTGEPFVECTVADAKEYIETYFGQFPQLKRWIDKCHDQIKNHGFIYSHFGRKRRLHNIHSEDRGVQGEEIRSGFNAIIQSASSDSLLLGAVDADNEIISLGLEQEMKIVMLVHDSVVAIVREDLIDQYNEILIRNIQKDRGISIPGCPIGIDSDSEAGGSRDYSCGKMKKQHPSIACIDDDEYTRYVKGVLLDAEFEYKKLAAMDKEHPDHSKYKDDKFIAVCKDLDNVKRILGA
As to B1, in series [1] (versus ancestor error-prone T5 DNA polymerase), the “increase in mutation rate (kanamycin-resistant CFU) from self-evolution / I308V” value was determined as 3.2 fold.

B2: T5 DNA polymerase: DNA polymerase of bacteriophage T5, NCBI YP_006950.1, SEQ ID NO:1 (protein)
chain: B1 chain with A164D, A166E, V308I, R593A
modifications: Escherichia virus T5
Take B2: the rate of association in series [3] was 7200-22,000 s^−1. For the same molecule, the “effect of six-His tag on polymerase activity” value in series [4] is on record as “did not interfere with polymerase activity”.

B3: T7 DNA polymerase: bacteriophage T7 DNA polymerase, used in the initial failed TADR (protein, UniProt P00581 1-704, looked up)
DNA-directed DNA polymerase: MIVSDIEANALLESVTKFHCGVIYDYSTAEYVSYRPSDFGAYLDALEAEVARGGLIVFHNGHKYDVPALTKLAKLQLNREFHLPRENCIDTLVLSRLIHSNLKDTDMGLLRSGKLPGKRFGSHALEAWGYRLGEMKGEYKDDFKRMLEEQGEEYVDGMEWWNFNEEMMDYNVQDVVVTKALLEKLLSDKHYFPPEIDFTDVGYTTFWSESLEAVDIEHRAAWLLAKQERNGFPFDTKAIEELYVELAARRSELLRKLTETFGSWYQPKGGTEMFCHPRTGKPLPKYPRIKTPKVGGIFKKPKNKAQREGREPCELDTREYVAGAPYTPVEHVVFNPSSRDHIQKKLQEAGWVPTKYTDKGAPVVDDEVLEGVRVDDPEKQAAIDLIKEYLMIQKRIGQSAEGDKAWLRYVAEDGKIHGSVNPNGAVTGRATHAFPNLAQIPGVRSPYGEQCRAAFGAEHHLDGITGKPWVQAGIDASGLELRCLAHFMARFDNGEYAHEILNGDIHTKNQIAAELPTRDNAKTFIYGFLYGAGDEKIGQIVGAGKERGKELKKKFLENTPAIAALRESIQQTLVESSQWVAGEQQVKWKRRWIKGLDGRKVHVRSPHAALNTLLQSAGALICKLWIIKTEEMLVEKGLKHGWDGDFAYMAWVHDEIQVGCRTEEIAQVVIETAQEAMRWVGDHWNFRCLLDTEGKMGPNWAICH
Turning to B3, the targeted mutagenesis entry in series [1] (TADR implemented with T7 DNA polymerase) was “no targeted mutagenesis was seen”. In addition, in series [5], the “bimolecular association rate constant (kon)” value is 3.6e+07 M⁻¹ s⁻¹.

These data come from patent US20250333714A1, “ARTIFICIAL DNA REPLISOME AND METHODS OF USE THEREOF” (Regents of the University of Minnesota, priority 2021, published 2025).
